# Test system: RNA oligonucleotide having the sequence of telomerase RNA (5′-UUGUCUAACCCUA-3′)
# Assay: Test for determining melting temperature (Tm) with telomerase RNA oligonucleotide
# Type: binding, human
# Settings: 3.4 μM compound + 3.4 μM RNA oligonucleotide, 10 mM sodium phosphate buffer (pH 7.2), absorbance at 260 nm, 20° C. to 95° C.
row,Substance,Tm (melting temperature)
1,HO-T^e2s-A^e2s-G^e2s-G^e2s-G^e2s-T^e2s-T^e2s-A^e2s-G^e2s-A^e2s-C^e2s-A^e2s-CH2CH2OH [Example 2],87 °C
2,HO-T^e2s-A^e2s-G^e2s-G^e2s-G^e2s-T^e2s-T^e2s-A^e2s-G^e2s-CH2CH2OH [Example 6],71 °C
3,HO-T^e2s-A^e2s-G^e2s-G^e2s-G^e2s-T^e2s-T^e2s-A^e2s-G^e2s-C^e2s-A^e2s-A^e2s-CH2CH2OH [Example 1],85 °C

# Continued, values first:
row,Tm (melting temperature),Substance
1,62 °C,HO-T^e2s-A^e2s-G^e2s-G^e2s-G^e2s-T^e2s-T^e2s-A^e2s-CH2CH2OH [Example 4]
2,74 °C,HO-T^e2s-A^e2s-G^e2s-G^e2s-G^e2s-T^e2s-T^e2s-A^e2s-G^e2s-A^e2s-CH2CH2OH [Example 3]
3,52 °C,HO-T^e2s-A^e2s-G^e2s-G^e2s-G^e2s-T^e2s-T^e2s-CH2CH2OH [Example 5]

# — patent US20070117773A1, “Telomerase-inhibiting ENA oligonucleotide” (SANKYO COMPANY, LIMITED, priority 2004, published 2007)
